In patent US20250288571A1 (Nested Therapeutics, Inc., priority 2024, published 2025):
“And” between values parts separate entries of the source, which are not always exact repeats. Identical values can stand only once.

How the values were obtained:
pMEK [1] = assay: pMEK AlphaLISA (MEK1 pS218/222), A549 cells, EGF stimulated; format: cell-based; conditions: Homo sapiens, 2 h compound, EGF 30 ng/ml 15 min
Protocol: (§1) Determination of pMEK IC50s
(§2) A549 cells were cultured in F12K/10% FBS media (ATCC CAT #21127022) and were seeded at 10000 cells/well and HCT116 cells were cultured in McCoy's 5A/10% FBS media (Gibco Cat #30-2007) were seeded at 15000 cells/well in 384 microplates (Corning CAT #3765). Cells were incubated overnight in a TC incubator. Compounds were serially diluted and added to cells for 2 h in a TC incubator. At the end of the 2 h EGF (R&D Systems 236-EG-200) was added at a final EGF concentration of 30 ng/ml and incubated for 15 minutes at 37° C. in a TC incubator. AlphaLisa (Perkin Elmer) was performed according to manufacturer's instructions (Perkin Elmer CAT #ALPHA.SF ULTRA MEK1 PS218/222). The percent (%) inhibition at each concentration of compound is calculated based on and relative to the AlphaLISA signal in the HPE and ZPE control wells contained within each assay plate. The ZPE control wells contain cells and DMSO as 0% inhibition, and the HPE control wells only contain cells and control compound (Sellekchem Staurosporin CAT #S1421) as 100% inhibition.

pMEK [2] = assay: pMEK AlphaLISA (MEK1 pS218/222), HCT116 cells, EGF stimulated; format: cell-based; conditions: Homo sapiens, HCT-116, 2 h compound, EGF 30 ng/ml 15 min
Protocol: as §1, §2

IPC298 cells = assay: IPC298 Cell Titer Glow assay (CTG); conditions: for IC50: Homo sapiens, IPC-298, 72 h, read-out: CTG IC50 (nM) Cell Line: IPC298.2
Protocol: (§3) HCT116 and IPC298 Cell Titer Glow Assay (CTG)
(§4) HCT116 cells and IPC298 cells were diluted with culture medium to the desired density 500 cells/well and 40 μL of cell suspension were added into each well of 384-well cell culture plate. […] The plates were covered and stored at room temperature for 30 minutes without shaking and then the plates were transferred into a 37° C. 5% CO2 incubator overnight.
(§5) A 10 mM solution in dimethyl sulfoxide (DMSO) was prepared for each test compound. A 3 fold, 10-point dilution was prepared from the stock solution. 40 nl of each solution in 100% DMSO was added to the 384-well plate and diluted to a final 0.1% DMSO final concentration. The plates were then incubated for 72 hours (for both cell lines) at 37° C.
(§6) CellTiter-Glo® 2.0 Reagent (Promega, G9242) was removed from the refrigerator and equilibrated at room temperature (23° C.) for 60 minutes. The plates were then removed from the incubator and allowed to equilibrate to room temperature. 30 μL CellTiter-Glo® 2.0 Reagent were added to the assay plates, and spun 1 min/1000 rpm. The plates were allowed to stand for about 20 minutes before being read on Envision using a standard luminescence readout. DMSO was employed as negative control (High control, HC) and 1 uM Staurosporine was employed as positive control (Low control, LC).
(§7) The percent (%) inhibition at each concentration of compound was calculated based on the signal in the negative and positive control wells contained within each assay plate.

HCT116 cells = assay: HCT116 Cell Titer Glow assay (CTG); conditions: for IC50 / viability at 1000 µM: Homo sapiens, HCT-116, 72 h; for IC50: read-out: CTG IC50 (nM) Cell Line: HCT116.20; for viability at 1000 µM: read-out: CTG % cell viability 1000 uM HCT116.20, HCT116 cells, 72 hours, 1000 uM
Protocol: as §3, §4, §5, §6, §7

[3] = percent cells remaining after treatment

SMILES | IC50 (pMEK [1]) | IC50 (pMEK [2]) | IC50 (IPC298 cells) | IC50 (HCT116 cells) | other results
CNS(=O)(=O)Nc1nccc(Cc2cncc(Nc3ccc(F)cc3F)c2C)c1F [Example 7, N-(2,4-difluorophenyl)-5-({3-fluoro-2-[(methylsulfamoyl)amino]pyridin-4-yl}methyl)-4-methylpyridin-3-amine] | < 10 nM | < 10 nM |  |  | 
CNS(=O)(=O)Nc1nccc(Cc2cncc(Nc3ccc(C(F)(F)F)cc3F)c2C)c1F [Example 8, 5-({3-fluoro-2-[(methylsulfamoyl)amino]pyridin-4-yl}methyl)-N-[2-fluoro-4-(trifluoromethyl)phenyl]-4-methylpyridin-3-amine] | < 10 nM | < 10 nM |  |  | 
CNS(=O)(=O)Nc1nccc(Cc2c[n+]([O-])cc(Nc3ccc(Cl)cc3F)c2C)c1F [Example 14, 3-[(4-chloro-2-fluorophenyl)amino]-5-({3-fluoro-2-[(methylsulfamoyl)amino]pyridin-4-yl}methyl)-4-methylpyridin-1-ium-1-olate] | < 10 nM | < 10 nM |  |  | 
CNS(=O)(=O)Nc1nccc(Oc2cncc(Nc3ccc(Cl)cc3F)c2C)c1F [Example 15, N-(4-chloro-2-fluorophenyl)-5-({3-fluoro-2-[(methylsulfamoyl)amino]pyridin-4-yl}oxy)-4-methylpyridin-3-amine] | < 10 nM | < 10 nM | < 10 nM | 10 to 100 nM | 
CNS(=O)(=O)Nc1nccc(C(C)c2cncc(Nc3ccc(Cl)cc3F)c2C)c1F (stereo not drawn) [Example 16] | 10 to 100 nM | 10 to 100 nM | 100 to 500 nM | > 1000 nM | viability at 1000 µM (HCT116 cells; [3]): 36.5%
Cc1c(Cc2ccnc(S(C)(=O)=O)c2F)cncc1Nc1ccc(F)cc1F [Example 17, N-(2,4-difluorophenyl)-5-[(3-fluoro-2-methanesulfonylpyridin-4-yl)methyl]-4-methylpyridin-3-amine] | 500 to 1000 nM | > 1000 nM | > 1000 nM | > 1000 nM | CTG % cell viability 100 uM IPC298.2 (IPC298 cells; IPC298 cells, 72 hours, 100 uM, percent cells remaining after treatment): 72.73; % and 98.52%; CTG % cell viability 1000 uM HCT116.20 (HCT116 cells; HCT116 cells, 72 hours, 1000 uM, percent cells remaining after treatment): 83.74%; viability at 1000 µM (HCT116 cells; [3]): 68.2%
CNS(=O)(=O)Nc1nccc(Cc2cncc(Nc3ccc(Cl)cc3F)c2)c1F [Example 18, 4-[[5-(4-chloro-2-fluoro-anilino)-3-pyridyl]methyl]-3-fluoro-N-(methylsulfamoyl)pyridin-2-amine] | < 10 nM | < 10 nM | 10 to 100 nM | 100 to 500 nM | 
Cc1c(Cc2ccc(S(C)(=O)=O)cc2F)cncc1Nc1ccc(Cl)cc1F [Example 20, N-(4-chloro-2-fluoro-phenyl)-5-[(2-fluoro-4-methylsulfonyl-phenyl)methyl]-4-methyl-pyridin-3-amine] | > 1000 nM | > 1000 nM |  |  | 
CNS(=O)(=O)Nc1nccc(Cc2cncc(Nc3ccc(Cl)cc3F)n2)c1F [Example 21, N-(4-chloro-2-fluoro-phenyl)-6-[[3-fluoro-2-(methylsulfamoylamino)-4-pyridyl]methyl]pyrazin-2-amine] | 10 to 100 nM | 10 to 100 nM | 500 to 1000 nM | > 1000 nM | 
Cc1c(Cc2ccnc([S+](C)[O-])c2F)cncc1Nc1ccc(Br)cc1F (stereo not drawn) [Example 22] | < 10 nM | < 10 nM | 10 to 100 nM | 100 to 500 nM | 
CNS(=O)(=O)Nc1nccc(Cc2cncc(Nc3ccc(OC)cc3F)c2C)c1F [Example 23, 5-({3-fluoro-2-[(methylsulfamoyl)amino]pyridin-4-yl}methyl)-N-(2-fluoro-4-methoxyphenyl)-4-methylpyridin-3-amine] | < 10 nM | < 10 nM |  | 10 to 100 nM | 
CNS(=O)(=O)Nc1nccc(Cc2cncc(OC)c2C)c1F [Example 24, ({3-fluoro-4-[(5-methoxy-4-methylpyridin-3-yl)methyl]pyridin-2-yl}sulfamoyl)(methyl)amine] | 10 to 100 nM |  | < 10 nM | 100 to 500 nM | IC50 (pMEK [2]; numeric value): > 100 nM
CNS(=O)(=O)Nc1ccc(Cc2cncc(Nc3ccc(Cl)cc3F)c2C)cc1OC [Example 25, N-(4-chloro-2-fluoro-phenyl)-5-[[3-methoxy-4-(methylsulfamoylamino)phenyl]methyl]-4-methyl-pyridin-3-amine] | > 1000 nM | > 1000 nM |  |  | 
CNS(=O)(=O)Nc1nccc(Cc2cncc(Nc3ccc(Cl)cc3F)c2F)c1F [Example 26, 4-[[5-(4-chloro-2-fluoro-anilino)-4-fluoro-3-pyridyl]methyl]-3-fluoro-N-(methylsulfamoyl)pyridin-2-amine] | < 10 nM | < 10 nM | 10 to 100 nM | 100 to 500 nM | 
CNS(=O)(=O)Nc1nccc(Cc2cncc(Oc3ncc(Cl)cc3F)c2C)c1F [Example 29, {[4-({5-[(5-chloro-3-fluoropyridin-2-yl)oxy]-4-methylpyridin-3-yl}methyl)-3-fluoropyridin-2-yl]sulfamoyl}(methyl)amine] | 10 to 100 nM | 10 to 100 nM |  |  | 
C=CCOc1cncc(Cc2ccnc(NS(=O)(=O)NC)c2F)c1C [Example 30, 4-[(5-allyloxy-4-methyl-3-pyridyl)methyl]-3-fluoro-N-(methylsulfamoyl)pyridin-2-amine] | 10 to 100 nM | 10 to 100 nM |  |  | 
CNS(=O)(=O)Nc1nccc(Cc2cncc(-c3ncccc3F)c2C)c1F [Example 31, 3-fluoro-4-[[5-(3-fluoro-2-pyridyl)-4-methyl-3-pyridyl]methyl]-N-(methylsulfamoyl)pyridin-2-amine] | > 1000 nM | > 1000 nM |  |  | 
CNS(=O)(=O)Nc1nccc(Cc2cncc(-c3ncc(Cl)cc3F)c2C)c1F [Example 32, 4-[[5-(5-chloro-3-fluoro-2-pyridyl)-4-methyl-3-pyridyl]methyl]-3-fluoro-N-(methylsulfamoyl)pyridin-2-amine] | > 1000 nM | > 1000 nM |  |  | 
CNS(=O)(=O)Nc1nccc(Cc2cncc(OCc3ncccc3F)c2C)c1F [Example 34, {[3-fluoro-4-({5-[(3-fluoropyridin-2-yl)methoxy]-4-methylpyridin-3-yl}methyl)pyridin-2-yl]sulfamoyl}(methyl)amine] | 500 to 1000 nM | > 1000 nM |  |  | 
CNS(=O)(=O)Nc1nccc(Cc2cncc(N(C)c3ccc(Cl)cc3F)c2C)c1F [Example 36, N-(4-chloro-2-fluorophenyl)-5-({3-fluoro-2-[(methylsulfamoyl)amino]pyridin-4-yl}methyl)-N,4-dimethylpyridin-3-amine] | < 10 nM | < 10 nM |  |  | 
CNS(=O)(=O)Nc1nccc(Oc2cncc(Nc3ccc(C4CC4)cc3F)c2C)c1F [Example 97, 4-[[5-(4-cyclopropyl-2-fluoro-anilino)-4-methyl-3-pyridyl]oxy]-3-fluoro-N-(methylsulfamoyl)pyridin-2-amine] |  |  | < 10 nM | < 10 nM | 
CNS(=O)(=O)Nc1nccc(Cc2cncc(Oc3ccc(C4CC4)cc3F)c2C)c1F [Example 99, 4-[[5-(4-cyclopropyl-2-fluoro-phenoxy)-4-methyl-3-pyridyl]methyl]-3-fluoro-N-(methylsulfamoyl)pyridin-2-amine] |  |  | < 10 nM | < 10 nM | 
CNS(=O)(=O)Nc1nccc(Oc2cncc(Oc3ccc(Br)cc3F)c2C)c1F [Example 100, 4-[[5-(4-bromo-2-fluoro-phenoxy)-4-methyl-3-pyridyl]oxy]-3-fluoro-N-(methylsulfamoyl)pyridin-2-amine] |  |  | < 10 nM | 10 to 100 nM | 
[2H]C([2H])([2H])c1ccc(Oc2cncc(Cc3ccnc(NS(=O)(=O)NC)c3F)c2C)c(F)c1 [Example 101, 3-fluoro-4-[[5-[2-fluoro-4-(trideuteriomethyl)phenoxy]-4-methyl-3-pyridyl]methyl]-N-(methylsulfamoyl)pyridin-2-amine] |  |  | < 10 nM | 10 to 100 nM | 
CNS(=O)(=O)Nc1nccc(Oc2cncc(Oc3ccc(C4CC4)cc3F)c2C)c1F [Example 102, 4-[[5-(4-cyclopropyl-2-fluoro-phenoxy)-4-methyl-3-pyridyl]oxy]-3-fluoro-N-(methylsulfamoyl)pyridin-2-amine] |  |  | < 10 nM | 10 to 100 nM | 
CNS(=O)(=O)Nc1nccc(Cc2cncc(Oc3ccc(C)c(F)c3)c2C)c1F [Example 103, 3-fluoro-4-[[5-(3-fluoro-4-methyl-phenoxy)-4-methyl-3-pyridyl]methyl]-N-(methylsulfamoyl)pyridin-2-amine] |  |  | < 10 nM | 100 to 500 nM | 
[2H]C([2H])([2H])c1ccc(Nc2cncc(Cc3ccnc(NS(=O)(=O)NC)c3F)c2C)c(F)c1 [Example 104, 3-fluoro-4-[[5-[2-fluoro-4-(trideuteriomethyl)anilino]-4-methyl-3-pyridyl]methyl]-N-(methylsulfamoyl)pyridin-2-amine] |  |  | < 10 nM | < 10 nM | 
